Measurements: patent US12185726B2, “Method for efficiently collecting and purifying Orobanche cumana (O. cumana) germination stimulants using aeroponic system and solid-phase extraction (SPE)” (ZHEJIANG UNIVERSITY, priority 2019, dated 2025)

Columns and labels:
O. cumana seeds = conditions: at nanomolar and micromolar concentrations; sunflower root exudates; cited from earlier work
O. cumana = experiment: Biological activities of the four O. cumana germination stimulants detected in stimulants collected under the aeroponic system (UHPLC-TQ-MS detection); set-up: species or system Orobanche cumana; conditions: collected sunflower root exudate stimulants
Text: 7) The ultra-high performance liquid chromatograph-triple quadrupole mass spectrometry (UHPLC-TQ-MS) was adopted to separate and detect the components of obtained O. cumana germination stimulants. The O. cumana germination stimulants in sunflower root exudates were identified using ultra-high performance liquid chromatography-mass spectrometry (UHPLC-MS/MS), and analyzed using Micromass Quattro Premier XE tandem mass spectrometer (Waters, USA). The mass spectrometer was equipped with an electrospray ionization source (ESI) and combined with a UHPLC system. Chromatographic conditions: UHPLC C18 column (100 mm×2.1 mm, 1.7 μm), and mobile phase: water-methanol. Gradient elution process: 30% methanol for 1 min; 5 min of transition to 80% methanol, and holding at 80% methanol for 1 min; and 0.2 min of transition back to 30% methanol. The column was equilibrated in this solvent composition for 1.8 min before proceeding to the next run. Each run: 9 min; column temperature: 50° C.; flow rate: 0.4 mL/min; and injection volume: 30 μl. MS conditions: ESI, in positive ion scanning mode; gas flow rates of atomizer and desolventizing: 50|h^−1 and 800|h^−1, respectively; capillary voltage: 2.7 kV; extraction cone voltage: 20 V, source temperature: 120° C.; and desolventizing gas temperature: 450° C. 3.0×10^−3 mbar argon was used for collision to induce dissociation and fragmentation. The collision energy for each compound was optimized. Multiple response monitoring (MRM) scanning mode was adopted to search for O. cumana germination stimulants. Mass-to-charge ratio scan range data can be found in (Raupp & Spring 2013; Ueno et al. 2014). In this experiment, based on previous literature data, four types of O. cumana germination stimulants were selected for detection. Three are biologically-active sesquiterpenes isolated from O. cumana germination stimulants, namely, dehydrocostus lactone, costunolide, and 8-epixanthatin, and the remaining one is a non-sesquiterpene, namely, heliolactone.

## C=C1C(=O)O[C@@H]2C[C@H](C)C(CCC(C)=O)=CC[C@H]12 [tomentosin]
O. cumana seeds
  stimulation of the germination of O. cumana seeds: can stimulate the germination

## C=C1C(=O)O[C@@H]2C[C@H](C)C(/C=C/C(C)=O)=CC[C@H]12 [8-epixanthatin]
O. cumana
  biological activity as O. cumana germination stimulant: high activities
O. cumana seeds
  stimulation of the germination of O. cumana seeds: can stimulate the germination

## C=C1C(=O)O[C@@H]2/C=C(\C)CC/C=C(\C)CC[C@@H]12 [costunolide]
O. cumana
  biological activity as O. cumana germination stimulant: high activities
O. cumana seeds
  stimulation of the germination of O. cumana seeds: can stimulate the germination

## heliolactone
O. cumana
  biological activity as O. cumana germination stimulant: very low activity

## C=C1CC[C@H]2C(=C)CC[C@H]3C(=C)C(=O)O[C@@H]3[C@@H]12 [dehydrocostus lactone]
O. cumana
  biological activity as O. cumana germination stimulant: high activities
